Assay results as given in ChEMBL document CHEMBL1201862, “PubChem BioAssay data set” (2004).
One block for each compound: values may come before it. The source made the active and inactive calls.

Assays:
Genome polyprotein = Genome polyprotein (Hepatitis C virus, UniProt Q2Q167); assay: HCV core protein dimerization inhibitors, dose response, biochemical, TR-FRET (AID 2159); set-up: species or system Hepacivirus hominis;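 further: blocks dimerization of HCV core protein measured by TR-FRET between tagged core106 pairs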
[1] = THP-1 cell cytotoxicity, dose response, cytotoxicity control for Vif-APOBEC3G degradation inhibitor project, THP-1 cells (AID 1117359); type: functional; details: Human immunodeficiency virus 1, THP-1
[2] = target: T1, Carboxy-terminal domain RNA polymerase II polypeptide A small phosphatase 1 (Homo sapiens, UniProt Q9GZU7); assay: inhibitors of CTDSP1, concentration-response testing, biochemical assay, absorbance-based, actives from ultra-high-throughput screening (AID 540297); type: functional
T1 sequence (Q9GZU7 whole entry): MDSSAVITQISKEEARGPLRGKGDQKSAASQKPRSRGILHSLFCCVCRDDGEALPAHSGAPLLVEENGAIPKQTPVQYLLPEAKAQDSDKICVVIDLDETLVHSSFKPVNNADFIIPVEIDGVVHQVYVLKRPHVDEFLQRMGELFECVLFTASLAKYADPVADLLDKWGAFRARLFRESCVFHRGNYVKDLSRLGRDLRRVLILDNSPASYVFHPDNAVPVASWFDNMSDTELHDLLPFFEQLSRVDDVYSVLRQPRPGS

Vero = assay: cytotoxicity of synthesized analogs in Vero cells, SAR follow-up, cytotoxicity control for West Nile virus antiviral project, cell-based, set II (AID 2402); type: functional; details: Chlorocebus sabaeus
NADPH oxidase 1 [3] = target: T2, NADPH oxidase 1 (Homo sapiens, UniProt Q9Y5S8); assay: Late-stage luminescence-based cell-based dose response assay to identify inhibitors of NADPH oxidase 1 (NOX1): Synthesized analogs 2.; type: functional
Cytochrome P450 2C19 = Cytochrome P450 2C19 (Homo sapiens, UniProt P33261); assay: qHTS Assay for Inhibitors and Substrates of Cytochrome P450 2C19. [Related pubchem assays: 410 ]; type: ADME; details: read-out: Potency
Cytochrome P450 2C9 = Cytochrome P450 2C9 (Homo sapiens, UniProt P11712); details: Potency
NADPH oxidase 1 [4] = target: T2, NADPH oxidase 1; type: functional, cell-based
Bcl-2-related protein A1 [5] = target: T3, Bcl-2-related protein A1 (Mus musculus, UniProt Q07440); assay: Bfl-1 binding inhibitors, SAR follow-up, biochemical, fluorescence polarization (AID 1070)
T3 sequence (Q07440 whole entry): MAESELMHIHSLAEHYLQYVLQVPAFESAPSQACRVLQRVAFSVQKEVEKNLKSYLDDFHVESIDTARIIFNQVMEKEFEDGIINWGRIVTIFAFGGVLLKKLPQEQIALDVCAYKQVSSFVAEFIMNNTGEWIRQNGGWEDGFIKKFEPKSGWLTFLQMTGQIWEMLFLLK

Bcl-2-related protein A1 [6] = target: T3, Bcl-2-related protein A1; assay: Bfl-1 inhibitors blocking BH3 peptide binding, confirmation, biochemical, TR-FRET, mouse Bfl-1 (AID 621);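 further: TR-FRET binding of GST-Bfl-1 to FITC-labelled Bid peptide via terbium antibody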
[7] = target: Glyceraldehyde-3-phosphate dehydrogenase (Homo sapiens, UniProt P04406)
[8] = target: Inward rectifier potassium channel 2 (Mus musculus, UniProt P35561); assay: Manual electrophysiological patch clamp assay for SAR compounds that inhibit/block inward-rectifying potassium ion channel Kir2.1. [Related pubchem assays: 1843 (Summary assay for Kir2.1 inhibitor assays.), 1672 (Primary HTS of 305616 compounds where 2592 were identified as active.)]; type: functional
[9] = target: T4, Induced myeloid leukemia cell differentiation protein Mcl-1 (Homo sapiens, UniProt Q07820); assay: MCL1-BIM BH3 interaction inhibitors, dose response, biochemical, fluorescence polarization, BIM-BH3 peptide, 1536-well (AID 2217)
Bcl-2-like protein 1 = Bcl-2-like protein 1 (Homo sapiens, UniProt Q07817); assay: BCL-XL inhibitors, dose response, selectivity assay for MCL1 inhibitor project, biochemical, fluorescence polarization, 1536-well (AID 2218)
[10] = target: T4, Induced myeloid leukemia cell differentiation protein Mcl-1; type: functional

T4 sequence (Q07820 whole entry): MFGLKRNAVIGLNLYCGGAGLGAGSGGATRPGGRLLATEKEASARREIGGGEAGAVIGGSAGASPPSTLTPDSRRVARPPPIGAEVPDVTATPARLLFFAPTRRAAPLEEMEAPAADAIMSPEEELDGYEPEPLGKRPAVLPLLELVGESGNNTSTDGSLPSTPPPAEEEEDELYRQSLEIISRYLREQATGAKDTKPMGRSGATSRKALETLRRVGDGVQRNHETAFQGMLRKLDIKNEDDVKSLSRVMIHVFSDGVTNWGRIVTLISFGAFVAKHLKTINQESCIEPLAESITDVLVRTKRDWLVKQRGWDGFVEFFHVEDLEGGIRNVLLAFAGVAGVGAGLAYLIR
T2 sequence (Q9Y5S8 whole entry): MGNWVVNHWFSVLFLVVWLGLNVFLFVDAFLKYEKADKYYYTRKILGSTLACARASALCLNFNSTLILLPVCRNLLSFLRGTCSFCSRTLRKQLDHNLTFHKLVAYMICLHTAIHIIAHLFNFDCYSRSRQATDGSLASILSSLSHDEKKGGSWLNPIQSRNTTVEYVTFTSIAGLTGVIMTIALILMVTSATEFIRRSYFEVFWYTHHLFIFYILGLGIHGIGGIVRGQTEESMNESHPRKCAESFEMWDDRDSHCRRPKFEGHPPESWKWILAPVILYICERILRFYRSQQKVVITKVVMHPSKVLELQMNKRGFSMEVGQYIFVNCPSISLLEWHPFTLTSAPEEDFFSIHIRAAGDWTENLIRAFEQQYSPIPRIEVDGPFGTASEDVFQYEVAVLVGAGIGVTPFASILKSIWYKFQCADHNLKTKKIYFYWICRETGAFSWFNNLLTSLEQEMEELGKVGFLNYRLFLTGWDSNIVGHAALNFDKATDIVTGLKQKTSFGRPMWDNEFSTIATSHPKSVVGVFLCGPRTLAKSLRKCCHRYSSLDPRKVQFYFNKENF
Genome polyprotein, sequence (Q2Q167 whole entry): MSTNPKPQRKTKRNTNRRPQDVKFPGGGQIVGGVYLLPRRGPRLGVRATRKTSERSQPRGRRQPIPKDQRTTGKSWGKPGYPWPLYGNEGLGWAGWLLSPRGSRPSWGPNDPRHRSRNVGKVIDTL
Cytochrome P450 2C19, sequence (P33261 whole entry): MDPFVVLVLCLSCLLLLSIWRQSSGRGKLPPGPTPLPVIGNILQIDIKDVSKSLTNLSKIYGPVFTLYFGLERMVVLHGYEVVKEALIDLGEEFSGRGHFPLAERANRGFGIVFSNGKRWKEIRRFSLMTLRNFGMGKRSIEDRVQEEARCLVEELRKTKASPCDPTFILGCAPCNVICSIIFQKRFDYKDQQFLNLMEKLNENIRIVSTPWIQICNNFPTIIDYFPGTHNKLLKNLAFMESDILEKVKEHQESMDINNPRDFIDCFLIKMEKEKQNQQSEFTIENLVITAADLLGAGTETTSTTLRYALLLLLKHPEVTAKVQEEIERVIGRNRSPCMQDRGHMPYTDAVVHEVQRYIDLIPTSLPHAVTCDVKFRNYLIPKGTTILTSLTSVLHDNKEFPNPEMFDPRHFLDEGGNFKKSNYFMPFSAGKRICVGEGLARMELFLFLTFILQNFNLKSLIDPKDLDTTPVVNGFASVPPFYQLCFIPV
Inward rectifier potassium channel 2, sequence (P35561 whole entry): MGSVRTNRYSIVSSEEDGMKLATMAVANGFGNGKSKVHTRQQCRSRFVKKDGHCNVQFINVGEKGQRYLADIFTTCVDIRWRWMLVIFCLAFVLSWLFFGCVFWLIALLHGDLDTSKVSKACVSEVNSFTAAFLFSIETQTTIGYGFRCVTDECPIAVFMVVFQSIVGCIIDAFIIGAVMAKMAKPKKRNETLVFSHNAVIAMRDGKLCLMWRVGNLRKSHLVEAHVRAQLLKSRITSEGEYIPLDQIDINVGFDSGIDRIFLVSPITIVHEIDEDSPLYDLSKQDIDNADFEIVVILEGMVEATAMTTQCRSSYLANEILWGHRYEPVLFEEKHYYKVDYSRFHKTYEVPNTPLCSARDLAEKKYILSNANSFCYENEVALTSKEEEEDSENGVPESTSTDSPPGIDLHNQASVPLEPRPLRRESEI
Cytochrome P450 2C9, sequence (P11712 whole entry): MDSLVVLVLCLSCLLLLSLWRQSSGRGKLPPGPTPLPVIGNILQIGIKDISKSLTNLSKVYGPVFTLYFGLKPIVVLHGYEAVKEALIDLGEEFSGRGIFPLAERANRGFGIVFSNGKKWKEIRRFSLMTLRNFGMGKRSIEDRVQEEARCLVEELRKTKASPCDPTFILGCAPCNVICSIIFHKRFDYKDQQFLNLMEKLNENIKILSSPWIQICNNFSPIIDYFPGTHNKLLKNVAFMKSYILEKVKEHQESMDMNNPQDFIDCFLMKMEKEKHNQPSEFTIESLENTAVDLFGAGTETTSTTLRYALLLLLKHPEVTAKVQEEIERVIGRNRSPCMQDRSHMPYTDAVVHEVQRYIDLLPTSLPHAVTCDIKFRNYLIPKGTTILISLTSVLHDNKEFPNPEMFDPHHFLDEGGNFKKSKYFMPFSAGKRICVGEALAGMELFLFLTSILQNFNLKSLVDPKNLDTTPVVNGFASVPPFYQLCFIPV
Bcl-2-like protein 1, sequence (Q07817 whole entry): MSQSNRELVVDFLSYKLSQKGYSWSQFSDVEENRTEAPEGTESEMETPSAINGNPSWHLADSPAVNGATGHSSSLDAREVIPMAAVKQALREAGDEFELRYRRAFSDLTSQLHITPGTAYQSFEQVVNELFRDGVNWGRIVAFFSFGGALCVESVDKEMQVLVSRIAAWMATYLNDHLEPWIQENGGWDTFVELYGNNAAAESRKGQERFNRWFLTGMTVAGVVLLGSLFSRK
Glyceraldehyde-3-phosphate dehydrogenase, sequence (P04406 whole entry): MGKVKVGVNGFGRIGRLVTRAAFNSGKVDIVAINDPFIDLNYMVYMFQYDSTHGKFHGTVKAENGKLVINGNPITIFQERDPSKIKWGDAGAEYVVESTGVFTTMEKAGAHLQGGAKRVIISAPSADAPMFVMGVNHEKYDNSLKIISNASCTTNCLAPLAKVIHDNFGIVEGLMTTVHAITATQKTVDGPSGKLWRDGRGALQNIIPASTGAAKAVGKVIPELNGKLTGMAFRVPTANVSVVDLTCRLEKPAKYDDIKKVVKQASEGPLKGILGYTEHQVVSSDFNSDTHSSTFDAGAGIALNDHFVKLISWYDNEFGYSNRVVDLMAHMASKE

Structure (SMILES): O=c1c2cc([N+](=O)[O-])ccc2nc2n1CCC2
CC50 (Vero): > 100 µM (active)

Structure (SMILES): ClCCN1c2ccccc2Sc2ccc(Cl)cc21
IC50 (NADPH oxidase 1 [3]): > 50 µM (not active)

Structure (SMILES): CC1=C(\C=C/C(C)=C/C=C\C(C)=C\C(=O)Nc2ccc(O)cc2)C(C)(C)CCC1
AC50 (Cytochrome P450 2C19): 31.6 µM (inconclusive)
AC50 (Cytochrome P450 2C9): 7.94 µM (inconclusive)

Structure (SMILES): CN1CCN(C2=CC(=O)N(c3ccc(Cl)cc3)C2=O)CC1
IC50 (Bcl-2-related protein A1 [5]): > 100 µM (not active)
IC50 (Bcl-2-related protein A1 [6]): > 100 µM (not active)
IC50 [7]: > 100 µM (not active)

Structure (SMILES): O=C(/C=C/c1ccc(Cl)c([N+](=O)[O-])c1)Nc1ccc(N2CCCC2)cc1
IC50 [9]: 20.9 µM (not active)
IC50 (Bcl-2-like protein 1): > 109 µM (not active)
IC50 [10]: > 54 µM (active)
IC50 [2]: 3.29 µM (active)

More lines, main results first:

IC50 (Genome polyprotein): > 49.8 µM (not active)
IC50 [2]: 6.19 µM (active)
Structure (SMILES): CN(CC(=O)Nc1cccc(F)c1)C(=O)c1cccc(-n2cccc2)c1
CC50 [1]: > 40 µM (active)

IC50 (NADPH oxidase 1 [4]): > 17 µM (not active)
Structure (SMILES): COc1ccc(NC(=O)Nc2ccc3c(c2)CCN3C(C)=O)cc1

IC50 [8]: 13.3 µM (active)
Structure (SMILES): COc1ccc(CNCc2ccccc2Cl)cc1
